# Test results published in publication PMC9224473 (International Journal of Molecular Sciences, 2022).
# Read-outs that look alike come from different tables or passages of the source.
# Experiments:
# [1] = system: SW620 (human metastatic colon cancer); assay: MTT cytotoxicity assay; format: cell-based; details: mean SD
# Protocol: (§1) The human cell lines SW480 (primary colon cancer), SW620 (lymph node metastatic colon cancer from the same patient as primary cancer cells), HCT116 (colon carcinoma), HepG2 (liver cancer), and HaCaT (immortalized keratinocytes) were obtained from the American Type Culture Collection (ATCC, Rockville, MD, USA). The SW480, SW620 and HCT116 cells were grown in MEM (ThermoSci, Waltham, MA, USA), HepG2 and HaCaT in DMEM High Glucose (Biowest SAS, Nuaillé, France) supplemented with 10% foetal bovine serum (FBS), HEPES (20 mM), and antibiotics (100 U mL^−1 of Penicillin and 100 μg mL^−1 of Streptomycin). The cells were incubated in a humidified incubator at 37 °C/5% CO2, until 80–90% confluence was reached.
# The cell viability was assessed by using of MTT salt [3-(4,5-dimethylthiazol-2-yl)-2,5-diphenyltetrazolium bromide] converted by mitochondrial dehydrogenase, occurring in living cells. […] The untreated cells were used as the control.
# (§2) Subsequently, the medium was removed and dimethyl sulfoxide (DMSO) with isopropanol (1:1) was added to dissolve the formazan crystals. The optical density was measured using UVM 340 reader (ASYS Hitech GmbH, Eugendorf, Austria) at a wavelength of 570 nm. The experiments were repeated three times. The cell viability was calculated as the percent of MTT reduced in treated cells versus control cells (untreated cells). The number of viable cells cultured without tested compounds was assumed as 100%. A decreased relative MTT level indicates decreased cell viability. The IC50 values were estimated using CompuSyn version 1.0.
# S. aureus ATCC 25923 = assay: MIC, broth microdilution, standard strain; format: cell-based, Staphylococcus aureus; details: 35 °C; for MIC: Staphylococcus aureus, ATCC25923, 19 h
# S. aureus T 5591 = assay: MIC, broth microdilution, clinical strain; format: cell-based, Staphylococcus aureus; details: 35 °C; for MIC: Staphylococcus aureus, T5591, 19 h
# E. coli 510 = assay: MIC, broth microdilution, clinical strain; format: cell-based, Escherichia coli; details: 35 °C; for MIC: Escherichia coli, 510, 19 h
# E. coli ATCC 25922 = assay: MIC, broth microdilution, standard strain; format: cell-based, Escherichia coli; details: 35 °C; for MIC: Escherichia coli, ATCC25922, 19 h
# P. aeruginosa 659 = assay: MIC, broth microdilution, clinical strain; format: cell-based, Pseudomonas aeruginosa; details: for MIC: Pseudomonas aeruginosa, 659, read-out: MIC P. aeruginosa 659, 19 h, 35 °C
# S. pasteuri KR 4358 = assay: MIC, broth microdilution, clinical strain; format: cell-based, Staphylococcus pasteuri; details: 35 °C; for MIC: Staphylococcus pasteuri, KR4358, 19 h
# S. aureus NCTC 4163 = assay: MIC, broth microdilution, standard strain; format: cell-based, Staphylococcus aureus; details: 35 °C; for MIC: Staphylococcus aureus, NCTC4163, 19 h
# S. aureus ATCC 29213 = assay: MIC, broth microdilution, standard strain; format: cell-based, Staphylococcus aureus; details: 35 °C; for MIC: Staphylococcus aureus, ATCC29213, 19 h
# [2] = system: S. epidermidis ATCC 35984; assay: MIC, broth microdilution, standard strain; format: cell-based, Staphylococcus epidermidis; details: 35 °C; for MIC: Staphylococcus epidermidis, ATCC35984, 19 h
# S. aureus T 5595 = assay: MIC, broth microdilution, clinical strain; format: cell-based, Staphylococcus aureus; details: 35 °C; for MIC: Staphylococcus aureus, T5595, 19 h
# E. coli 520 = assay: MIC, broth microdilution, clinical strain; format: cell-based, Escherichia coli; details: 35 °C; for MIC: Escherichia coli, 520, 19 h
# S. epidermidis KR 4243 = assay: MIC, broth microdilution, clinical strain; format: cell-based, Staphylococcus epidermidis; details: 35 °C; for MIC: Staphylococcus epidermidis, KR4243, 19 h
# [3] = system: S. epidermidis ATCC 12228; assay: MIC, broth microdilution, standard strain; format: cell-based, Staphylococcus epidermidis; details: 35 °C; for MIC: Staphylococcus epidermidis, ATCC12228, 19 h
# E. coli 600 = assay: MIC, broth microdilution, clinical strain; format: cell-based, Escherichia coli; details: 35 °C; for MIC: Escherichia coli, 600, 19 h
# [4] = system: HepG2 (human liver cancer); assay: MTT cytotoxicity assay; format: cell-based; details: mean SD
# Protocol: as §1
# (§3) The cell viability was assessed by using of MTT salt [3-(4,5-dimethylthiazol-2-yl)-2,5-diphenyltetrazolium bromide] converted by mitochondrial dehydrogenase, occurring in living cells. The cells were seeded in 96-well plates at a density of 1 × 10^4 cells per well and allowed to adhere for 24 h at 37 °C in a CO2 humidified incubator. […]. The untreated cells were used as the control.
# as §2, with “After 72 h incubation, the medium was replaced with 200 µL per well of free-serum medium containing 0.5 mg mL^−1 MTT and incubated for 4 h at 37 °C in a CO2 humidified incubator. Subsequently,” for “Subsequently,”
# [5] = system: SW480 (human primary colon cancer); assay: MTT cytotoxicity assay; format: cell-based; details: mean SD
# Protocol: as §1, §3
# as §2, with “After 72 h incubation, the medium was replaced with 200 µL per well of free-serum medium containing 0.5 mg mL^−1 MTT and incubated for 4 h at 37 °C in a CO2 humidified incubator. Subsequently,” for “Subsequently,”
# [6] = system: HCT116 (human colon cancer); assay: MTT cytotoxicity assay; format: cell-based; details: mean SD
# Protocol: as §1, §3
# as §2, with “After 72 h incubation, the medium was replaced with 200 µL per well of free-serum medium containing 0.5 mg mL^−1 MTT and incubated for 4 h at 37 °C in a CO2 humidified incubator. Subsequently,” for “Subsequently,”
# [7] = system: HaCaT (human immortal keratinocyte cell line); assay: MTT cytotoxicity assay; format: cell-based; details: 72 h, mean SD, read-out: IC50 HaCaT (normal cells)
# Protocol: as §1, §3
# as §2, with “After 72 h incubation, the medium was replaced with 200 µL per well of free-serum medium containing 0.5 mg mL^−1 MTT and incubated for 4 h at 37 °C in a CO2 humidified incubator. Subsequently,” for “Subsequently,”
# P. aeruginosa ATCC 15442 = assay: MIC, broth microdilution, standard strain; format: cell-based, Pseudomonas aeruginosa; details: 35 °C; for MIC: Pseudomonas aeruginosa, ATCC15442, 19 h
# S. aureus ATCC 6538 = assay: MIC, broth microdilution, standard strain; format: cell-based, Staphylococcus aureus; details: 35 °C; for MIC: Staphylococcus aureus, ATCC6538, 19 h
molecule,measurement,setting,value
"Cc1ccc(C(C)C)c(OCC(=O)N2CCN(c3cc4c(cc3F)c(=O)c(C(=O)O)cn4C3CC3)CC2)c1 [Compound 9, 1-cyclopropyl-6-fluoro-7-{4-[2-(2-isopropyl-5-methylphenoxy)acetyl]piperazin-1-yl}-4-oxo-1,4-dihydroquinoline-3-carboxylic acid]",IC50,"[1]; Homo sapiens, SW-620, 72 h",49.1 ± 4.1 µM
same,MIC,S. aureus ATCC 25923,2 µg/mL
same,MIC,S. aureus T 5591,4 µg/mL
same,MIC,E. coli 510,> 256 µg/mL
same,MIC,E. coli ATCC 25922,16 µg/mL
same,MIC,P. aeruginosa 659,256 µg/mL
same,MIC,S. pasteuri KR 4358,8 µg/mL
same,MIC,S. aureus NCTC 4163,2 µg/mL
same,MIC,S. aureus ATCC 29213,2 µg/mL
same,MIC,[2],4 µg/mL
same,MIC,S. aureus T 5595,4 µg/mL
same,MIC,E. coli 520,32 µg/mL
same,MIC,S. epidermidis KR 4243,8 µg/mL
same,MIC,[3],8 µg/mL
same,MIC,E. coli 600,32 µg/mL
same,IC50,"[4]; Homo sapiens, HepG2, 72 h",25.7 ± 0.8 µM
same,IC50,"[5]; Homo sapiens, SW480, 72 h",28.2 ± 0.6 µM
same,IC50,"[6]; Homo sapiens, HCT-116, 72 h",44.5 ± 4 µM
same,IC50,"[7]; Homo sapiens, HaCaT",19.9 ± 2.2 µM
same,MIC,P. aeruginosa ATCC 15442,256 µg/mL
same,MIC,S. aureus ATCC 6538,2 µg/mL
"1-cyclopropyl-6-fluoro-7-{4-[2-(2-isopropyl-5-methylphenoxy)acetyl]piperazin-1-yl}-4-oxo-1,4-dihydroquinoline-3-carboxylic acid [Compound 10]",IC50,[1]; 72 h,59 ± 1.2 µM
same,MIC S. aureus ATCC 25923,S. aureus ATCC 25923; 19 h,4 µg/mL
same,MIC S. aureus T 5591,S. aureus T 5591; 19 h,8 µg/mL
same,MIC E. coli 510,E. coli 510; 19 h,>256 µg/mL
same,MIC E. coli ATCC 25922,E. coli ATCC 25922; 19 h,32 µg/mL
same,MIC P. aeruginosa 659,"P. aeruginosa 659; 19 h, 35 °C",256 µg/mL
same,MIC S. pasteuri KR 4358,S. pasteuri KR 4358; 19 h,16 µg/mL
same,MIC S. aureus NCTC 4163,S. aureus NCTC 4163; 19 h,4 µg/mL
same,MIC S. aureus ATCC 29213,S. aureus ATCC 29213; 19 h,4 µg/mL
same,MIC S. epidermidis ATCC 35984,[2]; 19 h,8 µg/mL
same,MIC S. aureus T 5595,S. aureus T 5595; 19 h,8 µg/mL
same,MIC E. coli 520,E. coli 520; 19 h,64 µg/mL
same,MIC S. epidermidis KR 4243,S. epidermidis KR 4243; 19 h,16 µg/mL
same,MIC S. epidermidis ATCC 12228,[3]; 19 h,8 µg/mL
same,MIC E. coli 600,E. coli 600; 19 h,64 µg/mL
same,IC50,[4]; 72 h,26.1 ± 0.1 µM
same,IC50,[5]; 72 h,57.2 ± 2.7 µM
same,IC50,[6]; 72 h,> 100 µM
same,IC50,[7],37.1 ± 2.1 µM
same,MIC P. aeruginosa ATCC 15442,P. aeruginosa ATCC 15442; 19 h,256 µg/mL
same,MIC S. aureus ATCC 6538,S. aureus ATCC 6538; 19 h,4 µg/mL
"CC(C)[C@@H]1CC[C@@H](C)C[C@H]1OCC(=O)N1CCN(c2cc3c(cc2F)c(=O)c(C(=O)O)cn3C2CC2)CC1 [Compound 1, 1-cyclopropyl-6-fluoro-7-{4-[2-((1R,2S,5R)-2-isopropyl-5-methylcyclohexyloxy)acetyl]piperazin-1-yl}-4-oxo-1,4-dihydroquinoline-3-carboxylic acid]",IC50,"[1]; Homo sapiens, SW-620, 72 h",28.1 ± 2.1 µM
same,MIC,S. aureus ATCC 25923,4 µg/mL
same,MIC,S. aureus T 5591,4 µg/mL
same,MIC,E. coli 510,> 256 µg/mL
same,MIC,E. coli ATCC 25922,32 µg/mL
same,MIC,P. aeruginosa 659,> 256 µg/mL
same,MIC,S. pasteuri KR 4358,8 µg/mL
same,MIC,S. aureus NCTC 4163,2 µg/mL
same,MIC,S. aureus ATCC 29213,4 µg/mL
same,MIC,[2],2 µg/mL
same,MIC,S. aureus T 5595,8 µg/mL
same,MIC,E. coli 520,32 µg/mL
same,MIC,S. epidermidis KR 4243,8 µg/mL
same,MIC,[3],4 µg/mL
same,MIC,E. coli 600,32 µg/mL
same,IC50,"[4]; Homo sapiens, HepG2, 72 h",23.1 ± 0.2 µM
same,IC50,"[5]; Homo sapiens, SW480, 72 h",39.9 ± 4.5 µM
same,IC50,"[6]; Homo sapiens, HCT-116, 72 h",34.9 ± 1.4 µM
same,IC50,"[7]; Homo sapiens, HaCaT",21.7 ± 0.8 µM
same,MIC,P. aeruginosa ATCC 15442,> 256 µg/mL
same,MIC,S. aureus ATCC 6538,4 µg/mL
"O=C(O)c1cn(C2CC2)c2cc(N3CCNCC3)c(F)cc2c1=O [Ciprofloxacin, reference compound]",IC50,"[1]; Homo sapiens, SW-620, 72 h",> 100 µM
same,IC50,"[4]; Homo sapiens, HepG2, 72 h",> 100 µM
same,IC50,"[5]; Homo sapiens, SW480, 72 h",> 100 µM
same,IC50,"[6]; Homo sapiens, HCT-116, 72 h",> 100 µM
same,IC50,"[7]; Homo sapiens, HaCaT",> 100 µM
